Results reported in publication PMC2116318 (The Journal of Cell Biology, 1990).

Assays:
[1] = tested on: 56-kD α-like egg polypeptide (sea urchin egg CaM kinase); assay: Endogenous phosphorylation in sea urchin egg calmodulin-depleted cytosol; assay type: biochemical, L. pictus (sea urchin); details: 50 μM peptide in Fig. 5 A
[2] = tested on: L. pictus eggs (nuclear envelope breakdown); assay: Nuclear envelope breakdown; assay type: cell-based, L. pictus (sea urchin); details: for Delay of NEB (fraction of eggs) / Duration of delay of NEB / Normal NEB (fraction of eggs): Table I, injected before fertilization
rat brain CaM kinase [3] = assay: Autocamtide-2 phosphorylation by purified rat brain CaM kinase; assay type: biochemical
[4] = tested on: sea urchin egg CaM kinase; assay: Autocamtide-2 phosphorylation by sea urchin egg extracts; assay type: biochemical, L. pictus (sea urchin)
rat brain CaM kinase [5] = assay: Autophosphorylation of rat brain CaM kinase; assay type: biochemical; details: 50 μM peptide in Fig. 5 B
[6] = higher concentrations, over 4% of the cell volume

endogenous phosphorylation of the α-like subunit (effect in words) [1]: only marginally affected
delay of NEB in one case ([2]; estimated intracellular concentration 80 μM): 9 min
inhibition of brain kinase (in words) (rat brain CaM kinase [3]; Discussion summary): very weak inhibitor
inhibition of rat brain kinase (in words) (rat brain CaM kinase [3]; Fig. 4): does not inhibit rat brain kinase
inhibition of egg kinase (in words) ([4]; Discussion summary): very weak inhibitor
phosphorylation of autocamtide-2 (effect in words) ([4]; calmodulin-depleted cytosol fractions, Fig. 4): not affected
inhibitory effects on phosphorylation of autocamtide-2 (in words) ([4]; sea urchin egg extracts, concentrations up to 100 μM, Fig. 4): no apparent inhibitory effects
autophosphorylation of rat brain kinase (effect in words) (rat brain CaM kinase [5]): only slightly inhibited
Substance: CaMK(284-302): control peptide, lacks a critical region of the autoinhibitory domain and therefore does not inhibit CaM kinase (QETVDCLKKFNARRKLKGA; UniProt P11275 284-302, looked up, fragment)
effect on NEB (in words) ([2]; Discussion summary): minimal effects on NEB
Delay of NEB (fraction of eggs) ([2]; 1.7-3.5% vol, 60-190 μM): 1/9
Duration of delay of NEB ([2]; 1.7-3.5% vol, 60-190 μM): 9 min
Normal NEB (fraction of eggs) ([2]; 1.7-3.5% vol, 60-190 μM): 8/9
Delay of NEB (fraction of eggs) ([2]; 4.1-4.8% vol, 220-260 μM): 3/4
Duration of delay of NEB ([2]; 4.1-4.8% vol, 220-260 μM): 11 to 27 min
Normal NEB (fraction of eggs) ([2]; 4.1-4.8% vol, 220-260 μM): 1/4
NEB (in words) ([2]; control peptide, text on Fig. 6): normal NEB
delay of NEB ([2]; higher concentrations, injection volumes over 4% of the cell volume): 11 to 27 min
cases in which NEB proceeded normally [2, 6]: one case
cases with delayed NEB [2, 6]: three of four
